Laboratory results published in PMC12888861, “Antibacterial activity of enmetazobactam against Acinetobacter spp.: a molecular dissection of mechanism of action and resistance determinants” (Antimicrobial Agents and Chemotherapy, 2025).
Like-named read-outs stand apart in the source and are kept apart here.

Test system: A. non-baumannii isolates (n = 87)
Test: MIC, broth microdilution (EUCAST), A. non-baumannii isolates
Type: cell-based, Acinetobacter spp. (non-baumannii)
Settings: for MIC: in combinations ETZ fixed at 8 mg/L
Excerpt: The bacterial strains used in this study comprised 208 clinical isolates from the Spanish National Acinetobacter spp. 2020 Multicenter Collection, which was previously characterized in detail by our research group, including whole-genome sequencing, phylogenetics studies, clonal dynamics, and resistance mechanisms ([2], [29]). Additionally, a collection of A. baumannii ATCC 17978 transformants coding the blaOXA-23, blaOXA-24/40, blaOXA-51, blaOXA-58, blaOXA-143, and blaOXA-201 genes, previously constructed and described by our group ([30]), was used to determine the activity of enmetazobactam against strains carrying the main CHDLs of A. baumannii.
The antimicrobial susceptibility of the 208 Acinetobacter spp. isolates was assessed using the broth microdilution method, as described in the European Committee on Antimicrobial Susceptibility Testing (EUCAST) v.15 guidelines (http://www.eucast.org/clinical_breakpoints). […] MICs for enmetazobactam alone were assessed as well. […] Subsequently, MIC testing was also conducted with a collection of A. baumannii ATCC 17978 transformants expressing clinically relevant OXA-like carbapenemase genes.
The A. baumannii ATCC 19606 strain was used as the reference strain in all susceptibility experiments, in duplicate assays. Antibiotics were purchased from Sigma-Aldrich, except enmetazobactam and durlobactam, which were obtained from Advanz Pharma and MedChemExpress, respectively.

[1] = Acinetobacter, A. non-baumannii isolates (n=87), ETZ fixed 8 mg/L in combinations

C[C@@H](O)[C@H]1C(=O)N2C(C(=O)O)=C(SCCN=CN)C[C@H]12 [imipenem]
MIC distribution 0.12: 71.3
MIC (Acinetobacter baylyi, isolate NO-Ab27, Acinetobacter baylyi, read-out: MIC): 0.12 µg/mL
MIC (Acinetobacter beijerinckii, isolate NO-Ab122, Acinetobacter beijerinckii, read-out: MIC): 0.12 µg/mL
MIC (Acinetobacter bereziniae, isolate NO-Ab70, Acinetobacter bereziniae, read-out: MIC): 0.12 µg/mL
MIC (Acinetobacter bereziniae, isolate NO-Ab84, Acinetobacter bereziniae, read-out: MIC): 0.12 µg/mL
MIC (Acinetobacter bereziniae, isolate NO-Ab104, Acinetobacter bereziniae, read-out: MIC): 0.12 µg/mL
MIC (Acinetobacter bereziniae, isolate NO-Ab114, Acinetobacter bereziniae, read-out: MIC): 0.12 µg/mL
MIC (Acinetobacter bereziniae, isolate NO-Ab115, Acinetobacter bereziniae, read-out: MIC): 0.25 µg/mL
MIC (Acinetobacter bereziniae, isolate NO-Ab116, Acinetobacter bereziniae, read-out: MIC): 0.25 µg/mL
MIC (Acinetobacter bereziniae, isolate NO-Ab117, Acinetobacter bereziniae, read-out: MIC): 0.12 µg/mL
MIC (Acinetobacter bereziniae, isolate NO-Ab129, Acinetobacter bereziniae, read-out: MIC): 0.25 µg/mL
MIC (Acinetobacter bereziniae, isolate NO-Ab156, Acinetobacter bereziniae, read-out: MIC): 0.12 µg/mL
MIC (Acinetobacter calcoaceticus, isolate NO-Ab85, Acinetobacter calcoaceticus, read-out: MIC): 0.12 µg/mL
MIC (Acinetobacter calcoaceticus, isolate NO-Ab94, Acinetobacter calcoaceticus, read-out: MIC): ≤ 0.06 µg/mL
MIC (Acinetobacter calcoaceticus, isolate NO-Ab108, Acinetobacter calcoaceticus, read-out: MIC): ≤ 0.06 µg/mL
MIC (Acinetobacter calcoaceticus, isolate NO-Ab161, Acinetobacter calcoaceticus, read-out: MIC): 0.12 µg/mL
MIC (Acinetobacter calcoaceticus, isolate NO-Ab198, Acinetobacter calcoaceticus, read-out: MIC): ≤ 0.06 µg/mL
MIC (Acinetobacter calcoaceticus, isolate NO-Ab205, Acinetobacter calcoaceticus, read-out: MIC): 0.25 µg/mL
MIC (Acinetobacter calcoaceticus, isolate NO-Ab211, Acinetobacter calcoaceticus, read-out: MIC): 0.12 µg/mL
MIC (Acinetobacter courvalinii, isolate NO-Ab216, Acinetobacter courvalinii, read-out: MIC): 0.5 µg/mL
MIC (Acinetobacter dispersus, isolate NO-Ab2, Acinetobacter dispersus, read-out: MIC): ≤ 0.06 µg/mL
MIC (Acinetobacter guillouiae, isolate NO-Ab69, Acinetobacter guillouiae, read-out: MIC): ≤ 0.06 µg/mL
MIC (Acinetobacter guillouiae, isolate NO-Ab74, Acinetobacter guillouiae, read-out: MIC): 0.25 µg/mL
MIC (Acinetobacter haemolyticus, isolate NO-Ab92, Acinetobacter haemolyticus): 0.12 µg/mL
MIC (Acinetobacter haemolyticus, isolate NO-Ab177, Acinetobacter haemolyticus): 0.12 µg/mL
MIC (Acinetobacter haemolyticus, isolate NO-Ab217, Acinetobacter haemolyticus): 0.12 µg/mL
MIC (Acinetobacter johnsonii, isolate NO-Ab101, Acinetobacter johnsonii, read-out: MIC): 0.12 µg/mL
MIC (Acinetobacter junii, isolate NO-Ab76, Acinetobacter junii, read-out: MIC): ≤ 0.06 µg/mL
MIC (Acinetobacter junii, isolate NO-Ab77, Acinetobacter junii, OXA-24/40, read-out: MIC): 32 µg/mL
MIC (Acinetobacter lactucae, isolate NO-Ab60, Acinetobacter dijkshoorniae, read-out: MIC): 0.25 µg/mL
MIC (Acinetobacter lactucae, isolate NO-Ab63, Acinetobacter dijkshoorniae, read-out: MIC): 0.25 µg/mL
MIC (Acinetobacter lactucae, isolate NO-Ab65, Acinetobacter dijkshoorniae, read-out: MIC): 0.25 µg/mL
MIC (Acinetobacter lactucae, isolate NO-Ab86, Acinetobacter dijkshoorniae, read-out: MIC): 0.12 µg/mL
MIC (Acinetobacter lactucae, isolate NO-Ab88, Acinetobacter dijkshoorniae, read-out: MIC): 0.12 µg/mL
MIC (Acinetobacter lactucae, isolate NO-Ab91, Acinetobacter dijkshoorniae, read-out: MIC): 0.12 µg/mL
MIC (Acinetobacter lactucae, isolate NO-Ab121, Acinetobacter dijkshoorniae, read-out: MIC): 0.12 µg/mL
MIC (Acinetobacter lactucae, isolate NO-Ab125, Acinetobacter dijkshoorniae, read-out: MIC): ≤ 0.06 µg/mL
MIC (Acinetobacter lactucae, isolate NO-Ab160, Acinetobacter dijkshoorniae, read-out: MIC): 0.12 µg/mL
MIC (Acinetobacter nosocomialis, isolate NO-Ab43, Acinetobacter nosocomialis, read-out: MIC): ≤ 0.06 µg/mL
MIC (Acinetobacter nosocomialis, isolate NO-Ab68, Acinetobacter nosocomialis, OXA-24/40, read-out: MIC): 32 µg/mL
MIC (Acinetobacter nosocomialis, isolate NO-Ab98, Acinetobacter nosocomialis, read-out: MIC): 0.12 µg/mL
MIC (Acinetobacter nosocomialis, isolate NO-Ab208, Acinetobacter nosocomialis, read-out: MIC): 0.12 µg/mL
MIC (Acinetobacter pittii, isolate NO-Ab59, Acinetobacter pittii, read-out: MIC): 0.25 µg/mL
MIC (Acinetobacter pittii, isolate NO-Ab66, Acinetobacter pittii, read-out: MIC): 0.25 µg/mL
MIC (Acinetobacter pittii, isolate NO-Ab73, Acinetobacter pittii, read-out: MIC): ≤ 0.06 µg/mL
MIC (Acinetobacter pittii, isolate NO-Ab75, Acinetobacter pittii, read-out: MIC): 0.25 µg/mL
MIC (Acinetobacter pittii, isolate NO-Ab78, Acinetobacter pittii, read-out: MIC): ≤ 0.06 µg/mL
MIC (Acinetobacter pittii, isolate NO-Ab82, Acinetobacter pittii, read-out: MIC): ≤ 0.06 µg/mL
MIC (Acinetobacter pittii, isolate NO-Ab89, Acinetobacter pittii, read-out: MIC): 0.12 µg/mL
MIC (Acinetobacter pittii, isolate NO-Ab90, Acinetobacter pittii, read-out: MIC): ≤ 0.06 µg/mL
MIC (Acinetobacter pittii, isolate NO-Ab97, Acinetobacter pittii, read-out: MIC): ≤ 0.06 µg/mL
MIC (Acinetobacter pittii, isolate NO-Ab105, Acinetobacter pittii, read-out: MIC): 0.12 µg/mL
MIC (Acinetobacter pittii, isolate NO-Ab106, Acinetobacter pittii, read-out: MIC): ≤ 0.06 µg/mL
MIC (Acinetobacter pittii, isolate NO-Ab107, Acinetobacter pittii, read-out: MIC): ≤ 0.06 µg/mL
MIC (Acinetobacter pittii, isolate NO-Ab111, Acinetobacter pittii, read-out: MIC): 0.12 µg/mL
MIC (Acinetobacter pittii, isolate NO-Ab113, Acinetobacter pittii, read-out: MIC): 0.25 µg/mL
MIC (Acinetobacter pittii, isolate NO-Ab118, Acinetobacter pittii, read-out: MIC): 0.12 µg/mL
MIC (Acinetobacter pittii, isolate NO-Ab135, Acinetobacter pittii, read-out: MIC): 0.12 µg/mL
MIC (Acinetobacter pittii, isolate NO-Ab145, Acinetobacter pittii, read-out: MIC): 0.12 µg/mL
MIC (Acinetobacter pittii, isolate NO-Ab151, Acinetobacter pittii, read-out: MIC): 0.25 µg/mL
MIC (Acinetobacter pittii, isolate NO-Ab154, Acinetobacter pittii, read-out: MIC): 0.25 µg/mL
MIC (Acinetobacter pittii, isolate NO-Ab157, Acinetobacter pittii, read-out: MIC): 0.25 µg/mL
MIC (Acinetobacter pittii, isolate NO-Ab162, Acinetobacter pittii, read-out: MIC): 0.12 µg/mL
MIC (Acinetobacter pittii, isolate NO-Ab164, Acinetobacter pittii, read-out: MIC): ≤ 0.06 µg/mL
MIC (Acinetobacter pittii, isolate NO-Ab178, Acinetobacter pittii, read-out: MIC): 0.12 µg/mL
MIC (Acinetobacter pittii, isolate NO-Ab197, Acinetobacter pittii, read-out: MIC): 0.12 µg/mL
MIC (Acinetobacter proteolyticus, isolate NO-Ab99, Acinetobacter proteolyticus, read-out: MIC): 0.25 µg/mL
MIC (Acinetobacter proteolyticus, isolate NO-Ab102, Acinetobacter proteolyticus, read-out: MIC): 0.25 µg/mL
MIC (Acinetobacter proteolyticus, isolate NO-Ab210, Acinetobacter proteolyticus, read-out: MIC): ≤ 0.06 µg/mL
MIC (Acinetobacter radioresistens, isolate NO-Ab175, Acinetobacter radioresistens, read-out: MIC): 0.25 µg/mL
MIC (Acinetobacter radioresistens, isolate NO-Ab215, Acinetobacter radioresistens, read-out: MIC): 0.12 µg/mL
MIC (Acinetobacter ursingii, isolate NO-Ab3, Acinetobacter ursingii, read-out: MIC): ≤ 0.06 µg/mL
MIC (Acinetobacter ursingii, isolate NO-Ab64, Acinetobacter ursingii, read-out: MIC): ≤ 0.06 µg/mL
MIC (Acinetobacter ursingii, isolate NO-Ab87, Acinetobacter ursingii, read-out: MIC): ≤ 0.06 µg/mL
MIC (Acinetobacter ursingii, isolate NO-Ab103, Acinetobacter ursingii, read-out: MIC): ≤ 0.06 µg/mL
MIC (Acinetobacter ursingii, isolate NO-Ab119, Acinetobacter ursingii, read-out: MIC): 0.25 µg/mL
MIC (Acinetobacter ursingii, isolate NO-Ab120, Acinetobacter ursingii, read-out: MIC): ≤ 0.06 µg/mL
MIC (Acinetobacter ursingii, isolate NO-Ab123, Acinetobacter ursingii, read-out: MIC): ≤ 0.06 µg/mL
MIC (Acinetobacter ursingii, isolate NO-Ab126, Acinetobacter ursingii, read-out: MIC): 0.12 µg/mL
MIC (Acinetobacter ursingii, isolate NO-Ab147, Acinetobacter ursingii, read-out: MIC): 0.25 µg/mL
MIC (Acinetobacter ursingii, isolate NO-Ab155, Acinetobacter ursingii, read-out: MIC): 0.25 µg/mL
MIC (Acinetobacter ursingii, isolate NO-Ab165, Acinetobacter ursingii, read-out: MIC): 0.12 µg/mL
MIC (Acinetobacter ursingii, isolate NO-Ab166, Acinetobacter ursingii, read-out: MIC): ≤ 0.06 µg/mL
MIC (Acinetobacter ursingii, isolate NO-Ab214, Acinetobacter ursingii, read-out: MIC): ≤ 0.06 µg/mL
MIC (Acinetobacter ursingii, isolate NO-Ab221, Acinetobacter ursingii, read-out: MIC): ≤ 0.06 µg/mL
MIC (Acinetobacter ursingii, isolate NO-Ab222, Acinetobacter ursingii, read-out: MIC): ≤ 0.06 µg/mL
MIC (Acinetobacter, isolate NO-Ab146, Acinetobacter iwoffii, read-out: MIC): 0.25 µg/mL
MIC (Acinetobacter, isolate NO-Ab159, Acinetobacter iwoffii, read-out: MIC): ≤ 0.06 µg/mL
MIC50 [1]: 0.12 µg/mL
MIC90 [1]: 0.25 µg/mL
MIC distribution 0.25 (cumulative share of A. non-baumannii isolates (n=87) at MIC 0.25 mg/L, ETZ fixed 8 mg/L in combinations): 96.6
MIC distribution 0.5 (cumulative share of A. non-baumannii isolates (n=87) at MIC 0.5 mg/L, ETZ fixed 8 mg/L in combinations): 97.7
MIC distribution 1 (cumulative share of A. non-baumannii isolates (n=87) at MIC 1 mg/L, ETZ fixed 8 mg/L in combinations): 97.7
MIC distribution 2 (cumulative share of A. non-baumannii isolates (n=87) at MIC 2 mg/L, ETZ fixed 8 mg/L in combinations): 97.7
MIC distribution 4 (cumulative share of A. non-baumannii isolates (n=87) at MIC 4 mg/L, ETZ fixed 8 mg/L in combinations): 97.7
MIC distribution 8 (cumulative share of A. non-baumannii isolates (n=87) at MIC 8 mg/L, ETZ fixed 8 mg/L in combinations): 97.7
MIC distribution 16 (cumulative share of A. non-baumannii isolates (n=87) at MIC 16 mg/L, ETZ fixed 8 mg/L in combinations): 97.7
MIC distribution 32 (cumulative share of A. non-baumannii isolates (n=87) at MIC 32 mg/L, ETZ fixed 8 mg/L in combinations): 100
MIC distribution ≤0.06 (cumulative share of A. non-baumannii isolates (n=87) at MIC ≤0.06 mg/L, ETZ fixed 8 mg/L in combinations): 32.2
